One data set deals with CREB. The experiment in a line: CRE decoy transfection followed by osteogenic or adipogenic induction media. The conditions noted are these: 90 nM oligonucleotide, vs CRE mismatch control; for adipogenic differentiation after decoy transfection: adipogenic induction media. Type of data set: cell-based, human. The protocol: (§1) The human mesenchymal stem cells (hMSCs, PT-2501) were purchased from Cambrex Inc. and cultured as instructed by the supplier. Cells were expanded to passage 5 before being used for siRNA library screen. Briefly, diluted Xtreme-siRNA transfection reagent (cat# 4 476 115 00, Roche) (0.12 μl Xtreme in 14 μl DMEM) was mixed with pre-spotted siRNA (14 ng/well) in each well of 384-well plates for one hour. Cells (4000/well) in 60 μl media (no antibiotics) were then added using automated dispenser (Multidrop 384, Thermo LabSystems) (siRNA final concentration at around 15 nM). Transfection was allowed to continue for 8 hours before first media renewal. After 7 days of culture, cells were stained for alkaline phosphatase (ALP) activity (cat# 86R-1KT, Sigma). Post-screen assays were done in 96-well plates and siRNA was transfected at the concentration of 30 nM at the cell density of 8000 cells/well. CRE decoy oligonucleotide and control oligonucleotide (phosphorothioate bond modification on all nucleotides) (Park, Y. G. et al., J Biol Chem 274:1573-1580 (1999)) were transfected into cells similarly as siRNA using Xtreme-siRNA transfection reagent, except that the final DNA concentration was 90 nM. Control siRNA (siCon) used in the screen contains a pool of 50 scrambled sequences that have at least 4 mismatches to known human transcripts and ESTs, and at least 2-3 mismatches to the whole human genome. siCon used in target characterization after primary screen was purchased from Dharmacon (D-001210-01-05), which was bioinformatically designed to have >=4 mismatches with known human and mouse genes. siTOX was also purchased from Dharmacon (D-001500-01-05).
To find out whether CREB (cAMP Responding Element Binding protein), a common downstream effector of cAMP signaling pathway, is involved in mediating cAMP signaling controlled differentiation of hMSCs, we checked the expression level of the active form of CREB proteins in cells 3 days after siP2RY11, siADK, siGNAS, siSLC12a2 or siCon transfection. […]

The subject of data set [1] is human mesenchymal stem cells (hMSCs). The data set can be described thus: Oil Red O staining, adipogenic differentiation with adipogenic inducing media. Type of data set: cell-based. The protocol: Cells were rinsed with PBS twice, fixed in 10% formalin solution for 20 minutes, rinsed with PBS twice and dH2O once, washed with propylene glycol for 5 minutes, and stained with Oil red in propylene glycol (I2722A, Newcomer Supply) for 30 minutes. Cells were then washed with 85% propylene glycol for 5 minutes, rinsed with dH2O 3 times and preserved in 50% glycerol.
Bone cell maturation is accompanied by extracellular matrix (ECM) mineralization (John Bilezikian et al., Principles of bone biology, Vol 1, 2nd edn: Academic Press) (2002)). To examine whether the osteogenic differentiation of hMSCs induced by the hit siRNAs can further proceed to the maturation stage, hit siRNA treated cells were cultured for 20 days. […] These observations are consistent with the conclusion that the targeted genes of the ten effective hit siRNAs not only play inhibitory roles in osteogenic specification of hMSCs, but also in bone cell maturation. […] Furthermore, in osteoporotic patients, the number of adipocytes was increased in the marrow, implying a change of cell fate disposition from osteoblast lineage to adipocyte lineage (Justesen, J. et al., Biogerontology 2:165-171 (2001); Meunier, P. et al., Clin Orthop Relat Res 80:147-154 (1971)). […]

For data set [2] the test system is unchanged. The experiment in a line: Compound treatment: OS-induced osteogenic differentiation of hMSCs (ALP / alizarin red staining). Type of data set: cell-based. The conditions noted are these: compound combined with OS treatment; ALP and/or alizarin red staining. The protocol:
8-CPT-cAMP, Na (cat# 116812), 5-Iodotubercidin (cat# 407900), Prostaglandin E2 (PGE2, cat# 538904), SB 202190 (cat# 559388) and U0126 (cat# 662005) were purchased from Calbiochem; N6,2′-O-Dibutyryl-cAMP (cat# D0260-5MG), forskolin (cat# F6886), ascorbic acid 2-phosphate (cat# 49752-10G), β-glycerophosphate (G-6251), dexamethasone (D8893), 3-isobutyl-1-methylxanthine (IBMX, I5879) and Insulin (I 9278) were purchased from Sigma/Aldrich/Fluka.
Since the targeted genes are all positively involved in intracellular cAMP signaling, we tested the effect of two compounds of opposing function on cAMP production on osteogenic differentiation of hMSCs, ADK inhibitor 5-iodotubercidin and ADCY activator forskolin (Cottam, H. B. et al., J Med Chem 36:3424-3430 (1993); de Souza, N. J. et al., Med Res Rev 3:201-219 (1983)). […] ATP has been shown as a ligand for P2RY11 receptor (Communi et al., 1997). […] The present observations are consistent with the conclusion that […] in hMSCs, and vice versa.

The next data set relates to BMP-2, PLZF, TAZ. The data set can be described thus: RT-PCR of positive regulators of osteogenesis. Type of data set: cell-based, human. To be noted: samples collected on day 7 or day 12 after siRNA transfection. The protocol:
Total RNA from each sample was prepared from around 5×10(4) cells using RNAeasy mini kit from Qiagen and further treated with Turbo DNA-Free (cat# 1907, Ambion) to prevent DNA contamination. Reverse transcription was carried out using SuperScript First-Strand Synthesis System for RT-PCR (cat# 11904-018, Invitrogen) or Qiagen OneStep RT-PCR kit (cat# 210210) as instructed. PCR primers used were as follows: […]
To test their roles in our siRNA induced osteogenic differentiation, RT-PCR was performed on these genes. […] In addition, MAPK signaling pathways have been shown activated in the OS treated hMSCs, and inhibition of these pathways suppresses OS induced osteogenesis (FIG. 9b) (Jaiswal, R. K. et al., J Biol Chem 275:9645-9652 (2000)).

The subject of data set [3] is human mesenchymal stem cells (hMSCs). The experiment in a line: Alizarin red staining for calcium phosphate deposits (ECM mineralization, bone cell maturation). Type of data set: cell-based. To be noted: OS started three days after siRNA transfection and continued for 9 days. The protocol: Cells were rinsed with PBS twice, stained in alizarin red solution (cat# vw3611-2, VWR) for 8 minutes at room temperature, washed with PBS again, fixed in 10% formalin solution (cat# HT-5014, Sigma) for 20 minutes, then rinsed with water and air dried.
Bone cell maturation is accompanied by extracellular matrix (ECM) mineralization (John Bilezikian et al., Principles of bone biology, Vol 1, 2nd edn: Academic Press) (2002)). […] […] These observations are consistent with the conclusion that the targeted genes of the ten effective hit siRNAs not only play inhibitory roles in osteogenic specification of hMSCs, but also in bone cell maturation. […] Furthermore, in osteoporotic patients, the number of adipocytes was increased in the marrow, implying a change of cell fate disposition from osteoblast lineage to adipocyte lineage (Justesen, J. et al., Biogerontology 2:165-171 (2001); Meunier, P. et al., Clin Orthop Relat Res 80:147-154 (1971)). We therefore examined the effect of our hit siRNAs on adipogenic differentiation of hMSCs by combined treatment with an adipogenic inducing cocktail (100 μg/ml IBMX, 1 μM DEX and 10 μg/ml insulin).

The test system is the same in data set [4]. The experiment in a line: Alkaline phosphatase (ALP) activity staining of siRNA-transfected hMSCs (osteogenic differentiation screen). Type of data set: cell-based. The conditions noted are these: for ALP activity induced by the hit siRNAs or OS, on co-transfection: co-transfected with each hit siRNA, compared to siCon co-transfection. The protocol:
as §1
Fifty five hits that gave rise to a significant increase of ALP activity on day 7 after siRNA transfection in hMSCs were identified and confirmed (FIG. 2a & Table 1).

The next data set deals with ERK1/2 and p38. The experiment in a line: Western blot of phosphorylated ERK1/2 and p38. Type of data set: cell-based, human. To be noted: 72 hours after transfection. The protocol:
Cell lyses buffer contains 20 mM Tris pH8.0, 1 mM EDTA, 150 mM NaCl and 0.5% NP-40, and before usage, protease inhibitor cocktail (Cat# p8340, Sigma, 1:100 dilution) and phosphatase inhibitor cocktail 2 (Cat# p5726, sigma, 1:100 dilution) were added. Proteins (60 μg/well) were separated in 12% Novex Tris-Glycine gel (Cat# EC6008 box, Invitrogen) and transferred to Nitrocellulose membrane (Cat# LC2001, Invitrogen) using the XCell II blot module system (Cat# EI9051, Invitrogen). The membrane was blocked in 5% milk/PBST for 1 hour at room temperature, incubated over night at 4 degree with primary antibody, washed 3 times with PBST (0.05% Tween 20 in PBS), followed by one hour incubation with secondary antibody in 5% milk/PBST and 3 times wash with PBST at room temperature. For antibody against pCREB however, PBST was substituted with PBS in all steps except for the last one. Antibody-bound proteins were detected utilizing ECL Western blotting detection reagent (Amersham Biosciences).
Anti-phospho-CREB was purchased from Upstate Biotechnology (cat# 06-519); Anti-phospho-p38 was purchased from Cell signaling technology (cat# 9910).
We therefore examined the activation status of ERK1/2 and p38 in the siDUSP6 treated hMSCs along with other siRNA treated samples by western blot using antibodies against the phosphorylated form of the protein at 72 hours after transfection (FIG. 9c).
For orientation: Immunoblotting shows a protein as a band on a membrane.

“Also recorded” adds a separate entry of the source. Strand notation (5' to 3'): a small letter for the sugar, then the base; units joined by * are phosphorothioate-linked, units joined directly phosphodiester-linked; [ ] holds rarer units or linkages, { } end groups; capitals alone tell only the bases. d = 2'-deoxy (DNA)

Turning to “5′-TGACGTCATGACGTCATGACGTCA-3′ (DNA dT*dG*dA*dC*dG*dT*dC*dA*dT*dG*dA*dC*dG*dT*dC*dA*dT*dG*dA*dC*dG*dT*dC*dA) [CRE decoy, synthetic 24-mer CRE decoy palindrome oligonucleotide, phosphorothioate bond modification on all nucleotides]”, the entries for the “adipogenic differentiation after decoy transfection” value with CREB and in the data set with CREB (listed as CRE (CREB responding element) decoy) were “inhibited cells from undergoing adipogenic differentiation” and “less responsive”, respectively. In the data set with CREB (osteogenic induction media (OS), listed as CRE (CREB responding element) decoy), the “osteogenic differentiation after decoy transfection” value is given as “less responsive”.

For the compound `Nc1ncnc2c1c(I)cn2[C@@H]1O[C@H](CO)[C@@H](O)[C@H]1O` [5-iodotubercidin], in data set [1] (adipogenic inducing media plus compound), the “adipogenic differentiation of hMSCs (oil red o staining), compound” value is on record as “inhibited the adipogenic differentiation of hMSCs in a dose dependent manner”. Further, the “osteogenic effect of the OS media on hMSCs” value in data set [2] was “significantly enhanced; also recorded: enhanced the osteogenic effect of the OS media”.

For the compound “CAGAUGCAUCGACCAAAAC (siRNA; listed as RNA, chemistry not fully specified) [siMJD, siRNA targeting Machado-Joseph disease (ataxin 3)]”, in the data set with BMP-2, PLZF, TAZ, the “expression of PLZF (RT-PCR)” value was “detected; also recorded: induced”. In addition, the “intensity of alizarin red staining (bone cell maturation), 3+9OS” value in data set [3] was “no significant effect”.

Consider “CGGUCACGGAUGACGACUA (listed as RNA, chemistry not given here) [siCOMP, siRNA targeting cartilage oligomeric matrix protein]”, for which the “adipogenesis induced by adipogenic inducing media (Oil Red O)” value in data set [1] (Adipo on the third day after siRNA transfection, continued for 12 days) was “enhances adipogenesis”. Also, the “osteogenic differentiation (alkaline phosphatase activity)” value in data set [4] (9 days after siRNA transfection) is reported as “induces osteogenic differentiation”.

Take “CUGUGGUGUCUUGGUACAU (listed as RNA, chemistry not given here) [siDUSP6, siRNA targeting dual specificity phosphatase 6]”: the “intensity of alizarin red staining (bone cell maturation), 3+9OS” value in data set [3] was “modest enhancement”. The “phosphorylated (active) p38 level (Western blot)” value in the data set with ERK1/2 and p38 is on record as “increased level; also recorded: up regulated”.

Take “UAGUAGAGAUAUGGAGUGCtg (antisense); GCACUCCAUAUCUCUACUAtt (sense) (chain 1 UAGUAGAGAUAUGGAGUGCTG; chain 2 GCACUCCAUAUCUCUACUATT; chemistry not given here) [CBFA1 siRNA, CBFA 1-specific siRNA]”: the “ALP activity induced by the hit siRNAs or OS, on co-transfection” value in data set [4] is “reduced the level of ALP activity”; in data set [4] (listed as siCbfa 1) it was “reduced”.

Source of the values: US7601501B2, “Controlling osteogenesis by inhibition of osteogenic suppressors” (The Scripps Research Institute, priority 2006, dated 2009).
